Assay: Liver microsomal metabolism stability assay (rat)
Assay type: in vitro ADME
Conditions: compound 1 µM; for half-life at 1 µM: rat liver microsomes 0.5 mg/mL, NADPH/UDPGA, read-out: Rat t1/2; for Rat Remaining rate: rat liver microsomes, 60 min
Protocol: The objective of this experiment was to detect the stability of the example compounds in liver microsomes of rats, dogs and humans.
Formulation of compound working solution: compound stock solution was added to phosphate buffer to a final concentration of 20 µM.
Dilution was performed with 100 mM phosphate buffer to a final concentration of 0.625 mg/mL.
NADPH (reduced nicotinamide adenine dinucleotide phosphate) and UDPGA (uridine diphosphate glucuronic acid) were weighed, and 100 mM phosphate buffer was added to a final concentration of 20 mM.
1 mg of Alamethicin was weighed, and 200 µL of DMSO was added to formulate a 5 mg/mL solution. Then dilution was performed with phosphate buffer to a final concentration of 50 µg/mL.
Stop solution: cold acetonitrile containing 100 ng/mL labetalol hydrochloride and 400 ng/mL tolbutamide as internal standards.
400 µL of formulated liver microsomes, 25 µL of compound working solution and 25 µL of Alamethicin were added in sequence to a 96-well plate, and the mixture was pre-incubated at 37°C for 10 min. Then 50 µL of formulated NADPH/UDPGA was added to start the reaction and the mixture was incubated at 37°C. The total volume of the reaction system was 500 µL. The final contents of each component are as follows:
• Instrument: Shimadzu LC-30 AD; • Chromatographic column: XBridge® C18 (50*4.6 mm, 5 µm particle size); • Mobile phase: A: 0.1% formic acid solution, B: methanol • Elution gradient: 0.2-1.6 min 5% A to 95% A, 3.0-3.1 min 95% A to 5% A • Run time: 4.0 min.
• Instrument: API5500 liquid chromatography-mass spectrometer, AB Sciex; • Ion source: electrospray ionization source (ESI); • Drying gas: N2, temperature 500°C; • Electrospray voltage: 5000 V; • Detection mode: positive ion detection; • Scan mode: Multiple Reaction Monitoring (MRM) mode.

[2H]C([2H])(c1ccc(-c2ccccc2S(=O)(=O)Nc2noc(C)c2Cl)c(COCC)c1)N1C(=O)C2(CCCC2)N=C1CCCC [Example 2, 4'-((2-Butyl-4-oxo-1,3-diazaspiro[4.4]non-1-en-3-yl)methyl-d2)-N-(4-chloro-5-methylisoxazol-3-yl)-2'-(ethoxymethyl)-[1,1'-biphenyl]-2-sulfonamide]
half-life at 1 µM: 26.3 min | Rat Remaining rate: 29.4%

CCCCC1=NC2(CCCC2)C(=O)N1Cc1ccc(-c2ccccc2S(=O)(=O)Nc2noc(C)c2Cl)c(COCC)c1 [Example 8, 2-[4-[(2-Butyl-4-oxo-1,3-diazaspiro[4.4]non-1-en-3-yl)methyl]-2-(ethoxymethyl)phenyl]-N-(4-chloro-5-methyl-isoxazol-3-yl)benzenesulfonamide]
half-life at 1 µM: 29.9 min | Rat Remaining rate: 23.3%
